From patent US20240117005A1, “NOVEL BICYCLIC PEPTIDES” (THE COUNCIL OF THE QUEENSLAND INSTITUTE OF MEDICAL RESEARCH, priority 2021, published 2024) come the findings set out here.

“Also recorded” adds a separate entry of the source. No end group written: not given here. *: point of attachment. Myristyl = CCCCCCCCCCCCCC*

Data set [1] concerns PKCθ, LSD1, p65, C-Rel, SET, pSTAT3. The experiment in a line: Determination of nuclear-associated proteins. The format is cell-based, human. Conditions: MDA-MB-231, 10 μM. On the procedure: MDA-MB-231 cells were treated with DL-2 with concentration of 10 μM. MDA-MB-231 cells were treated with DL-2 or control and were permeabilised before being probed with the antibodies specific for PKCθ, LSD1, p65, C-Rel, SET, pSTAT3. Cover slips were mounted on glass microscope slides with ProLong nucblue glass Antifade reagent (Life Technologies). Digital images were analysed using ImageJ software (ImageJ, NIH, Bethesda, MD, USA) and graphs represent the mean fluorescence intensity in the nucleus or the cytoplasm compartments with significant differences calculated as per Mann-Whitney pairwise comparison.

Another data set concerns PD-L1-Me3 (PD-L1-PTM2). Briefly: High resolution digital pathology of PD-L1-Me3 (PDL1-PTM2) localisation. The format is cell-based, human. Conditions: for cytoplasmic expression of PDL1-PTM2 (PDL1-Me3): MDA-MB-231, vs vehicle control. On the procedure:
To examine the signature of CD8, CSV, EGFR, ABCB5, FOXQ1, commercial PD-L1-28-8, nuclear PD-L1, cytoplasmic PDL1 in MDA-MB-231 TNBC cells/TNBC brain cancer clone cells (untreated or treated with bicyclic inhibitors targeting nuclear PD-L1-PTM1). MDA-MB-231/MDA-MB-231-Br cells were permeabilised by incubating with 0.5% Triton X-100 for 15 min, blocked with 1% BSA in PBS and were probed with either CSV (Mouse host), CD8 (mouse host), EGFR (Rabbit host), ABCB5 (Goat Host), ALDH1A (Rabbit Host), NODAL (Goat Host), nuclear PDL1 (rabbit host), cytoplasmic PD-L1 (rabbit host) visualized with a donkey anti-rabbit AF 488, anti-mouse AF 568, donkey anti-goat 647. Cover slips were mounted on glass microscope slides with ProLong Glass Antifade reagent (Life Technologies). Protein targets were localised by digital pathology laser scanning microscopy. Single 0.5 μm sections were obtained using a ASI Digital pathology microscope using 100× oil immersion lens running ASI software. The final image was obtained by averaging four sequential images of the same section. Digital images were analyzed using automated ASI software (Applied Spectral Imaging, Carlsbad, CA) to determine the distribution and intensities automatically with automatic thresholding and background correction of the average nuclear fluorescence intensity (NFI), allowing for the specific targeting of expression of proteins of interest. Digital images were also analysed using ImageJ software (ImageJ, NIH, Bethesda, MD, USA) to determine the total cell fluorescence or cell surface only fluorescence for non-permeabilised cells. Digital images were analysed using ImageJ software (ImageJ, NIH, Bethesda, MD, USA) to determine either the Total Nuclear Fluorescent Intensity (TNFI), the Total Cytoplasmic Fluorescent Intensity (TCFI). ImageJ software with automatic thresholding and manual selection of regions of interest (ROIs) specific for cell nuclei was used to calculate the Pearson's co-efficient correlation (PCC) for each pair of antibodies. PCC values range from: −1=inverse of co-localisation, 0=no co-localisation, +1=perfect co-localisation. The Mann-Whitney nonparametric test (GraphPad Prism, GraphPad Software, San Diego, CA) was used to determine significant differences between datasets.
All breast cancer cell lines used were sourced from ATCC. MDA-MB-231 or MDB-MB-231-Br cell lines were maintained and cultured in DMEM (Invitrogen) supplemented with 10% FBS, 2 mM L-glutamine, and 1% PSN. MCF-7 cells were stimulated with 1.29 ng/mL phorbol 12-myristate 13-acetate (PMA) (Sigma-Aldrich) or 5 ng/ml recombinant TGF-β1 (R&D Systems) for 60 hours. For inhibitor studies, 2×10^5 cells were seeded in 2 mL complete media in 6 well plates and incubated overnight at 37° C./5% CO2. Cells were treated with PD-L1 bicyclic peptides targeting the nuclear axis PD-L1, HDAC2i or vehicle control. For qPCR analysis, at each time point, adherent cells were trypsinized, washed and cell pellets stored at −80° C. until further processing. For microscopy studies, 4×10^4 cells were seeded on coverslips and treated with inhibitors as described above. At each timepoint, coverslips were washed, fixed with 3.7% formaldehyde (Sigma) and stored at 4° C. until processing. […]
MDA-MB-231 were permeabilized and treated with either vehicle control or, DL-2 (current stock), or linear PDL1 (PDL1-L1). […] Significant differences are calculated as one-way ANOVA Kruskal-Wallis test comparison to vehicle control. […]

The subject of data set [2] is 4T1 TNBC metastatic cancer cells. The experiment in a line: 4T1 model of metastatic breast cancer in mice. Type of data set: in vivo, mouse. On the procedure: 4T1 Gold standard immunotherapy resistant mouse model mice obtained from the ARC, Perth and mice were inoculated with 4T1 TNBC metastatic cancer cells. DL-2 is supplied lyophilised in glass vials and was reconstituted using sodium chloride injection BP (0.9% saline) to make a stock solution of 10 mg/mL using a needle/syringe, DL-2 was mixed by inversion. Animals were then injected by intraperitoneal injection at 10, 20 or 30 mg/kg daily and rested over the weekend. Mice were monitored over time for body weight and tumour volume.
4T1 Gold standard immunotherapy resistant mouse model mice obtained from the ARC, Perth and mice were inoculated with 4T1 TNBC metastatic cancer cells. DL-2 or DL-2-D is supplied lyophilised in glass vials was reconstituted using sodium chloride injection BP (0.9% saline) to make a stock solution of 10 mg/mL using a needle/syringe, DL-2 was mixed by inversion. Animals were then injected by intraperitoneal injection and mice were monitored over time for body weight and tumour volume for DL-2 at 20 mg/kg every second day with resting over the weekend in conjunction with αPD1 or isotype control (10 mg/kg).
DL-2-D was mixed by inversion. Animals were then injected by intraperitoneal injection and mice were monitored over time for body weight and tumour volume for DL-2-D at a concentration of 20 mg/kg every two days (identical regime to αPD1) in conjunction with αPD1 or isotype control (10 mg/kg).

In the case of `CCCCCCCCCCCCCC(=O)NC(C)C(=O)NC1CSCc2cc3cc(c2)CSC[C@H](NC(=O)[C@H](Cc2ccccc2)NC(=O)[C@H](C(C)CC)NC(=O)[C@H](Cc2ccccc2)NC(=O)[C@H]([C@@H](C)O)NC(=O)C(CC(C)C)NC1=O)C(=O)N[C@@H](CCCNC(C)=N)C(=O)N[C@@H](CC(C)C)C(=O)N[C@@H](CCCNC(=N)N)C(=O)N[C@@H](CCCCN)C(=O)NCC(=O)N[C@@H](CCCNC(=N)N)C(=O)NC(C(=O)N[C@@H](CCSC)C(=O)NC(CCSC)C(=O)N[C@@H](CC(=O)O)C(=O)NC(C(=O)N[C@@H](CCCCN)C(=O)NC(CCCCN)C(=O)O)C(C)C)CSC3` (mixture of isomers) [DL-2], in data set [1], the “off-target effects on nuclear proteins (PKCθ, LSD1, p65, C-Rel, SET, pSTAT3)” value was “No off-target effects were observed”. Moreover, in the data set with PD-L1-Me3 (PD-L1-PTM2), the “cytoplasmic expression of PDL1-PTM2 (PDL1-Me3)” value is recorded as “induce increased cytoplasmic expression”. In the data set with PD-L1-Me3 (PD-L1-PTM2) (non-permeabilized MDA-MB-231 cells), the “expression of cell surface PD-L1-Me3” value is reported as “significant upregulation”. For the same compound, the “cytoplasmic/cell surface PD-L1-Me3” value in the data set with PD-L1-Me3 (PD-L1-PTM2) (permeabilized MDA-MB-231 cells) is on record as “significantly upregulating”. In the data set with PD-L1-Me3 (PD-L1-PTM2) (permeabilized MDA-MB-231 cells), the “expression of nuclear PD-L1-Me3” value was “abrogating”. The body weight result in data set [2] (DL-2 and anti-PD1 combination therapy) is “No change”; in data set [2] (DL-2 monotherapy) it was “No change”. The primary tumour volume entry in data set [2] (DL-2 in combination with an anti-PD1 antibody, 10 day treatment period) is “significantly reduces”; in data set [2] (DL-2 monotherapy 20 and 30 mg/kg i.p., eight day treatment period), “reduces”. Further, the “lung, liver or spleen weights” value in data set [2] (DL-2 in combination with anti-PD1) and in data set [2] (DL-2 monotherapy) was “does not alter” throughout. The tumour weight entry in data set [2] (DL-2 monotherapy 20 and 30 mg/kg, after 8 days) was “significantly reduced”.

As for “LTFIFRLRKGRMMDVKK (Myristyl-LTFIFRLRKGRMMDVKK) [PDL1-L1, Myristyl- linear peptide, prototype]”, in the data set on PD-L1-Me3 (PD-L1-PTM2) (listed as linear PDL1 peptide), the “cytoplasmic expression of PDL1-PTM2 (PDL1-Me3)” value is reported as “not able to induce any increased expression; also recorded: did not induce any increased expression”.
